Assay results published in PubChem BioAssay AID248 (DTP/NCI, 2004).
“And” between values parts separate entries of the source, which are not always exact repeats. Identical values can stand only once. Inconclusive results and toxic doses are left out. No stated cut-off is given here; in the data, active means T/C of 150% or more; inactive means T/C below 125%.

Tested on: L1210 leukemia ip in BDF1 mice, survival T/C
Assay: NCI In Vivo Anticancer Drug Screen. Data for tumor model L1210 Leukemia (intraperitoneal) in B6D2F1 (BDF1) mice
Conditions: higher = longer survival
In short: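 Transplanted-tumor mice were given test agent; controls received vehicle only. Survival readings from the two groups were divided (treated over control).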

Measured: T/C

N=C(N)SCc1c2ccccc2c(CSC(=N)N)c2ccccc12
inactive: endpoint: mean survival time, dose: 0.1 mg/kg/injection, schedule: Q07DX002 (ip), vehicle: saline 97 % of control | endpoint: mean survival time, dose: 0.11 mg/kg/injection, schedule: Q01DX Z (ip), vehicle: saline 110 % of control | endpoint: mean survival time, dose: 0.2 mg/kg/injection, schedule: Q01DX Z (ip), vehicle: carboxymethylcellulose (CMC) 113 % of control | endpoint: mean survival time, dose: 0.2 mg/kg/injection, schedule: Q07DX002 (ip), vehicle: saline 103 % of control | endpoint: mean survival time, dose: 0.3 mg/kg/injection, schedule: Q01DX Z (ip), vehicle: carboxymethylcellulose (CMC) 110 % of control | endpoint: mean survival time, dose: 0.3 mg/kg/injection, schedule: Q03HX008 (ip), vehicle: other 113 % of control | endpoint: mean survival time, dose: 0.37 mg/kg/injection, schedule: Q01DX Z (ip), vehicle: carboxymethylcellulose (CMC) 103 % of control | endpoint: mean survival time, dose: 0.39 mg/kg/injection, schedule: Q07DX002 (ip), vehicle: saline 92 % of control | endpoint: mean survival time, dose: 0.62 mg/kg/injection, schedule: Q#A X Z (ip), vehicle: carboxymethylcellulose (CMC) 111 % of control | endpoint: mean survival time, dose: 0.63 mg/kg/injection, schedule: Q01DX Z (im), vehicle: carboxymethylcellulose (CMC) 112 % of control | endpoint: mean survival time, dose: 0.63 mg/kg/injection, schedule: Q01DX Z (sc), vehicle: carboxymethylcellulose (CMC) 106 % of control | endpoint: mean survival time, dose: 0.75 mg/kg/injection, schedule: Q01DX Z (im), vehicle: carboxymethylcellulose (CMC) 106 % of control | endpoint: mean survival time, dose: 0.78 mg/kg/injection, schedule: Q07DX002 (ip), vehicle: saline 110 % of control | endpoint: mean survival time, dose: 1.25 mg/kg/injection, schedule: Q01DX009 (sc), vehicle: carboxymethylcellulose (CMC) 92 % of control | endpoint: mean survival time, dose: 1.25 mg/kg/injection, schedule: Q01DX Z (sc), vehicle: carboxymethylcellulose (CMC) 103 % of control and 112 % of control | endpoint: mean survival time, dose: 1.5 mg/kg/injection, schedule: Q01DX Z (ip), vehicle: saline 112 % of control | endpoint: mean survival time, dose: 2.5 mg/kg/injection, schedule: Q01DX009 (sc), vehicle: carboxymethylcellulose (CMC) 92 % of control | endpoint: mean survival time, dose: 2.5 mg/kg/injection, schedule: Q01DX Z (sc), vehicle: carboxymethylcellulose (CMC) 106 % of control and 113 % of control | endpoint: mean survival time, dose: 3.12 mg/kg/injection, schedule: Q01DX Z (im), vehicle: carboxymethylcellulose (CMC) 112 % of control | endpoint: mean survival time, dose: 3.12 mg/kg/injection, schedule: Q01DX Z (ip), vehicle: carboxymethylcellulose (CMC) 112 % of control | endpoint: mean survival time, dose: 5.0 mg/kg/injection, schedule: Q01DX006 (iv), vehicle: carboxymethylcellulose (CMC) 108 % of control | endpoint: mean survival time, dose: 5.0 mg/kg/injection, schedule: Q01DX009 (sc), vehicle: carboxymethylcellulose (CMC) 92 % of control | endpoint: mean survival time, dose: 5.0 mg/kg/injection, schedule: Q01DX Z (im), vehicle: carboxymethylcellulose (CMC) 113 % of control | endpoint: mean survival time, dose: 10.0 mg/kg/injection, schedule: Q01DX006 (iv), vehicle: carboxymethylcellulose (CMC) 96 % of control and 111 % of control | endpoint: mean survival time, dose: 10.0 mg/kg/injection, schedule: Q01DX009 (sc), vehicle: carboxymethylcellulose (CMC) 98 % of control | endpoint: mean survival time, dose: 10.0 mg/kg/injection, schedule: Q01DX Z (oral), vehicle: carboxymethylcellulose (CMC) 108 % of control | endpoint: mean survival time, dose: 10.0 mg/kg/injection, schedule: Q01DX Z (sc), vehicle: carboxymethylcellulose (CMC) 108 % of control | endpoint: mean survival time, dose: 12.5 mg/kg/injection, schedule: Q01DX Z (im), vehicle: carboxymethylcellulose (CMC) 110 % of control | endpoint: mean survival time, dose: 12.5 mg/kg/injection, schedule: Q03HX008 (ip), vehicle: carboxymethylcellulose (CMC) 107 % of control | endpoint: mean survival time, dose: 17.0 mg/kg/injection, schedule: Q01DX001 (ip), vehicle: carboxymethylcellulose (CMC) 111 % of control | endpoint: mean survival time, dose: 20.0 mg/kg/injection, schedule: Q01DX001 (sc), vehicle: carboxymethylcellulose (CMC) 98 % of control | endpoint: mean survival time, dose: 20.0 mg/kg/injection, schedule: Q01DX006 (iv), vehicle: carboxymethylcellulose (CMC) 112 % of control | endpoint: mean survival time, dose: 20.0 mg/kg/injection, schedule: Q01DX009 (sc), vehicle: carboxymethylcellulose (CMC) 95 % of control and 100 % of control | endpoint: mean survival time, dose: 20.0 mg/kg/injection, schedule: Q01DX Z (im), vehicle: carboxymethylcellulose (CMC) 106 % of control | endpoint: mean survival time, dose: 20.0 mg/kg/injection, schedule: Q01DX Z (oral), vehicle: carboxymethylcellulose (CMC) 111 % of control | endpoint: mean survival time, dose: 20.0 mg/kg/injection, schedule: Q01DX Z (sc), vehicle: carboxymethylcellulose (CMC) 106 % of control and 109 % of control | endpoint: mean survival time, dose: 25.0 mg/kg/injection, schedule: Q01DX017 (ip), vehicle: carboxymethylcellulose (CMC) 102 % of control | endpoint: mean survival time, dose: 25.0 mg/kg/injection, schedule: Q03HX040 (ip), vehicle: carboxymethylcellulose (CMC) 100 % of control | endpoint: mean survival time, dose: 30.0 mg/kg/injection, schedule: Q01DX009 (sc), vehicle: carboxymethylcellulose (CMC) 100 % of control | endpoint: mean survival time, dose: 32.0 mg/kg/injection, schedule: Q03HX024 (ip), vehicle: carboxymethylcellulose (CMC) 97 % of control | endpoint: mean survival time, dose: 32.0 mg/kg/injection, schedule: Q03HX024 (ip), vehicle: other 101 % of control | endpoint: mean survival time, dose: 40.0 mg/kg/injection, schedule: Q01DX001 (sc), vehicle: carboxymethylcellulose (CMC) 104 % of control | endpoint: mean survival time, dose: 41.0 mg/kg/injection, schedule: Q01DX Z (ip), vehicle: saline 105 % of control | endpoint: mean survival time, dose: 44.0 mg/kg/injection, schedule: Q01DX009 (sc), vehicle: carboxymethylcellulose (CMC) 101 % of control | endpoint: mean survival time, dose: 48.0 mg/kg/injection, schedule: Q01DX Z (ip), vehicle: carboxymethylcellulose (CMC) 101 % of control | endpoint: mean survival time, dose: 50.0 mg/kg/injection, schedule: Q03HX008 (ip), vehicle: carboxymethylcellulose (CMC) 113 % of control | endpoint: mean survival time, dose: 50.0 mg/kg/injection, schedule: Q03HX016 (ip), vehicle: carboxymethylcellulose (CMC) 94 % of control | endpoint: mean survival time, dose: 50.0 mg/kg/injection, schedule: Q03HX024 (ip), vehicle: carboxymethylcellulose (CMC) 102 % of control | endpoint: mean survival time, dose: 61.5 mg/kg/injection, schedule: Q01DX Z (ip), vehicle: saline 92 % of control | endpoint: mean survival time, dose: 66.0 mg/kg/injection, schedule: Q01DX009 (sc), vehicle: carboxymethylcellulose (CMC) 102 % of control | endpoint: mean survival time, dose: 80.0 mg/kg/injection, schedule: Q01DX001 (sc), vehicle: carboxymethylcellulose (CMC) 103 % of control | endpoint: mean survival time, dose: 80.0 mg/kg/injection, schedule: Q01DX Z (oral), vehicle: carboxymethylcellulose (CMC) 105 % of control and 106 % of control | endpoint: mean survival time, dose: 100.0 mg/kg/injection, schedule: Q01DX009 (ip), vehicle: saline 92 % of control | endpoint: mean survival time, dose: 100.0 mg/kg/injection, schedule: Q01DX009 (sc), vehicle: carboxymethylcellulose (CMC) 107 % of control | endpoint: mean survival time, dose: 100.0 mg/kg/injection, schedule: Q06HX004 (ip), vehicle: carboxymethylcellulose (CMC) 93 % of control | endpoint: mean survival time, dose: 100.0 mg/kg/injection, schedule: Q08DX003 (ip), vehicle: carboxymethylcellulose (CMC) 108 % of control | endpoint: mean survival time, dose: 160.0 mg/kg/injection, schedule: Q01DX001 (sc), vehicle: carboxymethylcellulose (CMC) 103 % of control | endpoint: mean survival time, dose: 200.0 mg/kg/injection, schedule: Q01DX009 (ip), vehicle: carboxymethylcellulose (CMC) 113 % of control | endpoint: mean survival time, dose: 200.0 mg/kg/injection, schedule: Q01DX017 (ip), vehicle: carboxymethylcellulose (CMC) 105 % of control | endpoint: mean survival time, dose: 200.0 mg/kg/injection, schedule: Q01DX Z (im), vehicle: carboxymethylcellulose (CMC) 112 % of control | endpoint: mean survival time, dose: 200.0 mg/kg/injection, schedule: Q08DX002 (ip), vehicle: carboxymethylcellulose (CMC) 113 % of control | endpoint: mean survival time, dose: 200.0 mg/kg/injection, schedule: Q08DX003 (ip), vehicle: carboxymethylcellulose (CMC) 104 % of control | endpoint: mean survival time, dose: 200.0 mg/kg/injection, schedule: Q#A X002 (ip), vehicle: saline 111 % of control | endpoint: mean survival time, dose: 266.0 mg/kg/injection, schedule: Q01DX001 (sc), vehicle: carboxymethylcellulose (CMC) 103 % of control | endpoint: mean survival time, dose: 300.0 mg/kg/injection, schedule: Q03DX Z (ip), vehicle: saline 113 % of control | endpoint: mean survival time, dose: 320.0 mg/kg/injection, schedule: Q01DX001 (sc), vehicle: carboxymethylcellulose (CMC) 103 % of control | endpoint: mean survival time, dose: 320.0 mg/kg/injection, schedule: Q01DX Z (oral), vehicle: carboxymethylcellulose (CMC) 112 % of control | endpoint: mean survival time, dose: 400.0 mg/kg/injection, schedule: Q01DX001 (oral), vehicle: carboxymethylcellulose (CMC) 106 % of control | endpoint: mean survival time, dose: 400.0 mg/kg/injection, schedule: Q01DX001 (sc), vehicle: carboxymethylcellulose (CMC) 102 % of control | endpoint: mean survival time, dose: 400.0 mg/kg/injection, schedule: Q04DX005 (ip), vehicle: carboxymethylcellulose (CMC) 97 % of control | endpoint: mean survival time, dose: 400.0 mg/kg/injection, schedule: Q07DX Z (ip), vehicle: saline 102 % of control | endpoint: mean survival time, dose: 400.0 mg/kg/injection, schedule: Q08DX002 (ip), vehicle: saline 97 % of control | endpoint: mean survival time, dose: 600.0 mg/kg/injection, schedule: Q01DX001 (sc), vehicle: carboxymethylcellulose (CMC) 98 % of control | endpoint: mean survival time, dose: 640.0 mg/kg/injection, schedule: Q01DX Z (oral), vehicle: carboxymethylcellulose (CMC) 112 % of control | endpoint: mean survival time, dose: 800.0 mg/kg/injection, schedule: Q01DX001 (oral), vehicle: carboxymethylcellulose (CMC) 105 % of control | endpoint: mean survival time, dose: 800.0 mg/kg/injection, schedule: Q08DX002 (ip), vehicle: carboxymethylcellulose (CMC) 109 % of control and 111 % of control | endpoint: mean survival time, dose: 800.0 mg/kg/injection, schedule: Q08DX003 (ip), vehicle: carboxymethylcellulose (CMC) 107 % of control | endpoint: mean survival time, dose: 900.0 mg/kg/injection, schedule: Q01DX001 (sc), vehicle: carboxymethylcellulose (CMC) 112 % of control | endpoint: mean survival time, dose: 1200.0 mg/kg/injection, schedule: Q01DX001 (oral), vehicle: carboxymethylcellulose (CMC) 97 % of control | endpoint: mean survival time, dose: 1280.0 mg/kg/injection, schedule: Q01DX Z (oral), vehicle: carboxymethylcellulose (CMC) 101 % of control | endpoint: mean survival time, dose: 1340.0 mg/kg/injection, schedule: Q01DX001 (oral), vehicle: carboxymethylcellulose (CMC) 107 % of control | endpoint: mean survival time, dose: 1600.0 mg/kg/injection, schedule: Q01DX001 (oral), vehicle: carboxymethylcellulose (CMC) 100 % of control | endpoint: mean survival time, dose: 2000.0 mg/kg/injection, schedule: Q01DX001 (oral), vehicle: carboxymethylcellulose (CMC) 112 % of control | endpoint: mean survival time, dose: 3000.0 mg/kg/injection, schedule: Q01DX001 (oral), vehicle: carboxymethylcellulose (CMC) 101 % of control | endpoint: median survival time, dose: 50.0 mg/kg/injection, schedule: Q04DX003 (ip), vehicle: steriod suspending solution 111 % of control | endpoint: median survival time, dose: 100.0 mg/kg/injection, schedule: Q01DX009 (ip), vehicle: steriod suspending solution 94 % of control | endpoint: median survival time, dose: 100.0 mg/kg/injection, schedule: Q04DX003 (ip), vehicle: steriod suspending solution 111 % of control | endpoint: median survival time, dose: 125.0 mg/kg/injection, schedule: Q01DX001 (sc), vehicle: steriod suspending solution 100 % of control | endpoint: median survival time, dose: 250.0 mg/kg/injection, schedule: Q01DX001 (sc), vehicle: steriod suspending solution 111 % of control | endpoint: median survival time, dose: 400.0 mg/kg/injection, schedule: Q04DX003 (sc), vehicle: steriod suspending solution 111 % of control | endpoint: median survival time, dose: 500.0 mg/kg/injection, schedule: Q01DX001 (sc), vehicle: steriod suspending solution 100 % of control | endpoint: median survival time, dose: 800.0 mg/kg/injection, schedule: Q04DX003 (sc), vehicle: steriod suspending solution 111 % of control | endpoint: median survival time, dose: 1000.0 mg/kg/injection, schedule: Q01DX001 (sc), vehicle: steriod suspending solution 105 % of control
